Experimental data as given in patent US11723910B1, “Compositions and methods for modulating the endothelial barrier” (University of South Florida, priority 2019, dated 2023).

Tests used:
[1] = tested on: HUVEC; assay: Seahorse glycolytic rate assay in HUVEC; assay type: cell-based, human; conditions: Afobazole 300 μM 3 hours prior to the assay vs vehicle
Procedure: FIGS. 2A and 2B show glycolytic PER (glycoPER) and oxygen consumption rate (OCR) obtained from glycolytic rate assay of cells treated with 100 μM PRE-084 or vehicle for 3 hours. […] FIGS. 2D-2H show assay parameters obtained from the glycolytic rate assay. FIGS. 2I-2K show assay parameters from ATP rate assay. *P<0.05.
(§1) HUVEC and media were obtained from LifeLine cell technology, PRE-084 from Tocris Biotechne, and CCCP from Abcam. TER was determined with an Electrical Cell-Substrate Impedance Sensor (ECIS; Applied Biophysics). For transfection, 200 nM σ1 siRNA (SEQ ID NO: 2: GGCUUGAGCUCACCACCUA) or control non-targeting RNA (SEQ ID NO: 3: UGGUUUACAUGUUUUCCUA) purchased from Dharmacon was introduced with the Nucleofector II device (Lonza). Cell culture procedures, TER recordings, and protein isolation and transfection protocols have been previously described. Western blotting was done using WES (Protein Simple). Rabbit anti σ1 was purchased from Novus Biologicals NBP1-82479 and mouse anti (β-actin was from cell signaling #3700. Both primaries were used at 1:50 dilution. Seahorse xfp analyzer was used for glycolytic rate and ATP rate with assay kits (Agilent) according to manufacturer's instructions using 40.000 cells/well. Calculation of assay parameters was done using Wave software with its built-in report generators and statistical analysis was done using Prism 7.

[2] = tested on: HUVEC monolayers treated with CCCP; assay: CCCP-induced barrier disruption (TER) in HUVEC; assay type: cell-based, human; conditions: 10 μM CCCP
Procedure: (§2) Because ATP depletion has been reported to disrupt the endothelial barrier (Unno N, et al. (1996) Hyperpermeability and ATP depletion induced by chronic hypoxia or glycolytic inhibition in Caco-2BBe monolayers. Am J Physiol 270(6 Pt 1):G1010-1021), assessment was performed to determine whether carbonyl cyanide m-chlorophenyl hydrazine (CCCP) induced mitochondrial insult causes barrier disruption and whether the barrier-enhancing properties of PRE-084 can counteract this effect. […] To further validate the contribution of σ1 to endothelial barrier function, siRNA was used to selectively reduce σ1 expression in HUVEC.
(§3) HUVEC and media were obtained from LifeLine cell technology, PRE-084 from Tocris Biotechne, and CCCP from Abcam. TER was determined with an Electrical Cell-Substrate Impedance Sensor (ECIS; Applied Biophysics). For transfection, 200 nM σ1 siRNA (SEQ ID NO: 2: […]) or control non-targeting RNA (SEQ ID NO: 3: […]) purchased from Dharmacon was introduced with the Nucleofector II device (Lonza). Cell culture procedures, TER recordings, and protein isolation and transfection protocols have been previously described. Western blotting was done using WES (Protein Simple). […]

[3] = tested on: human umbilical vein endothelial cell (HUVEC) monolayers; assay: Transendothelial electrical resistance (TER, ECIS) of HUVEC monolayers; assay type: cell-based; conditions: mean TER at 70 h vs non-targeting RNA
Procedure: as §1

[4] = tested on: sigma-1 receptor (σ1); assay: Western blot of σ1 expression after siRNA knockdown in HUVEC; assay type: cell-based, human; conditions: 200 nM σ1 siRNA
Procedure: as §2, §3

## CCOc1ccc2nc(SCCN3CCOCC3)[nH]c2c1 [Afobazole]
[1]
  glycolytic proton efflux rate: enhances
  oxygen consumption rate: lowers

## carbonyl cyanide m-chlorophenyl hydrazine [CCCP]
[2]
  transendothelial electrical resistance (TER) after CCCP: significantly lowered

## σ1 siRNA: σ1 siRNA (SEQ ID NO: 2: GGCUUGAGCUCACCACCUA) purchased from Dharmacon (listed as RNA, chemistry not given here)
[3]
  TER in σ1 siRNA-treated cells compared to control: significant decreases
[4]; 48-h post-transfection
  decrease in σ1 protein compared to controls: 47%
[4]; 70-h post-transfection
  decrease in σ1 protein compared to controls: 74%
